Calls of active or inactive are those of the source. The rule behind the calls is not given here.
What was measured:
MDA-MB-231 [1] = test: Induction of cell cycle arrest in human MDA-MB-231 cells assessed as accumulation at G0/G1 phase in presence of UV by PI staining based flow cytometry (reference value: 43.25 %); type: functional
MDA-MB-231 [2] = test: Anti-migration activity in human MDA-MB-231 cells at 0.8 uM incubated for 24 hrs by wound healing assay (reference value: 45.4 %); type: functional
MDA-MB-231 [3] = test: Induction of apoptosis in human MDA-MB-231 cells assessed as early apoptotic cells incubated for 24 hrs by Annexin V-FITC/PI staining based flow cytometry (reference value: 1.94 %); type: functional
[4] = Induction of apoptosis in human MCF-10A cells assessed as viable cells at 0.8 uM incubated for 24 hrs by Annexin V-FITC/PI staining based flow cytometry (reference value: 92.5 %); type: toxicity, cell-based; conditions: read-out: Activity
MCF-10A [5] = test: Induction of apoptosis in human MCF-10A cells assessed as early apoptotic cells at 0.8 uM incubated for 24 hrs by Annexin V-FITC/PI staining based flow cytometry (reference value: 2.96 %); type: toxicity, cell-based
MDA-MB-231 [6] = test: Induction of apoptosis in human MDA-MB-231 cells assessed as necrotic cells incubated for 24 hrs by Annexin V-FITC/PI staining based flow cytometry (reference value: 3.6 %); type: functional
MCF-10A [7] = test: Induction of apoptosis in human MCF-10A cells assessed as necrotic cells at 0.8 uM incubated for 24 hrs by Annexin V-FITC/PI staining based flow cytometry (reference value: 1.38 %); type: toxicity, cell-based
MDA-MB-231 [8] = test: Induction of apoptosis in human MDA-MB-231 cells assessed as necrotic cells at 0.8 uM incubated for 24 hrs by Annexin V-FITC/PI staining based flow cytometry (reference value: 0.59 %); type: functional
MDA-MB-231 [9] = test: Induction of cell cycle arrest in human MDA-MB-231 cells assessed as accumulation at G0/G1 phase at 0.8 uM by PI staining based flow cytometry (reference value: 64.6 %); type: functional
MDA-MB-231 [10] = test: Antitumor activity against human MDA-MB-231 cells assessed as sphere-forming efficiency incubated for 6 hrs followed by medium replacement without compound measured after 6 days by microscopic analysis (reference value: 1.07 %); type: functional
MCF-10A [11] = test: Inhibition of mitochondrial membrane potential in human MCF-10A cells assessed as increase in green fluorescence at 0.8 uM incubated for 24 hrs by JC-1 dye based analysis; type: toxicity, cell-based
MDA-MB-231 [12] = test: Induction of apoptosis in human MDA-MB-231 cells assessed as viable cells at 0.8 uM incubated for 24 hrs by Annexin V-FITC/PI staining based flow cytometry (reference value: 86.2 %); type: functional; conditions: read-out: Activity
MDA-MB-231 [13] = test: Induction of apoptosis in human MDA-MB-231 cells assessed as early apoptotic cells at 0.8 uM incubated for 24 hrs by Annexin V-FITC/PI staining based flow cytometry (reference value: 7.39 %); type: functional
MDA-MB-231 [14] = test: Inhibition of mitochondrial membrane potential in human MDA-MB-231 cells incubated for 24 hrs in presence of UV by JC-1 dye based analysis (reference value: 5.51 %); type: functional
MDA-MB-231 [15] = test: Induction of apoptosis in human MDA-MB-231 cells assessed as viable cells incubated for 24 hrs by Annexin V-FITC/PI staining based flow cytometry (reference value: 92.06 %); type: functional
MDA-MB-231 [16] = test: Induction of apoptosis in human MDA-MB-231 cells assessed as late apoptotic cells incubated for 24 hrs by Annexin V-FITC/PI staining based flow cytometry (reference value: 2.4 %); type: functional
[17] = Toxicity in BALB/c nude mouse xenografted with human MDA-MB-231 cells assessed as body weight change at 20 mg/kg, iv administered every two days for 21 days; type: organism-based; conditions: in vivo, 504 h, time 21 day
MDA-MB-231 [18] = test: Inhibition of mitochondrial membrane potential in human MDA-MB-231 cells assessed as increase in green fluorescence at 0.8 uM incubated for 24 hrs by JC-1 dye based analysis; type: functional, cell-based
MDA-MB-231 [19] = test: Induction of apoptosis in human MDA-MB-231 cells assessed as late apoptotic cells at 0.8 uM incubated for 24 hrs by Annexin V-FITC/PI staining based flow cytometry (reference value: 5.81 %); type: functional
MDA-MB-231 [20] = test: Anti-migration activity in human MDA-MB-231 cells at 0.8 uM incubated for 48 hrs by wound healing assay (reference value: 65.2 %); type: functional
MCF-10A [21] = test: Induction of apoptosis in human MCF-10A cells assessed as late apoptotic cells at 0.8 uM incubated for 24 hrs by Annexin V-FITC/PI staining based flow cytometry (reference value: 3.13 %); type: toxicity, cell-based
MDA-MB-231 [22] = test: Cytotoxicity against human MDA-MB-231 cells incubated for 12 hrs by MTT assay; type: functional, cell-based; conditions: MDA-MB-231, 12 h
A549 = test: Cytotoxicity against human A549 cells in presence of Cu2+ by MTT assay; type: functional, cell-based
MDA-MB-231 [23] = test: Cytotoxicity against human MDA-MB-231 cells in presence of Cu2+ by MTT assay; type: functional, cell-based

`Oc1cccc2cccnc12` [OXYQUINOLINE] showed an Activity (MDA-MB-231 [1]) of 61.23%, an Activity (MDA-MB-231 [2]) of 3.8% and an Activity (MDA-MB-231 [3]) of 33.76%. It also gave a viability at 24 h, 0.8 µM [4] of 8.98%, an Activity (MCF-10A [5]) of 63.2% and an Activity (MDA-MB-231 [6]) of 2.66%. The Activity (MCF-10A [7]) was 3.39%, the Activity (MDA-MB-231 [8]) was 0.88% and the Activity (MDA-MB-231 [9]) was 78.2%. For the same molecule, the Activity (MDA-MB-231 [10]) was 0.19%, the Activity (MCF-10A [11]) was “Toxic” and the viability at 0.8 µM (MDA-MB-231 [12]) was 3.03%. The Activity (MDA-MB-231 [13]) was 80.5%, the “inhibition (INH)” value (MDA-MB-231 [14]) was 46.91% and the Activity (MDA-MB-231 [15]) was 44.1%. For the same molecule, the Activity (MDA-MB-231 [16]) was 20.48%, the Activity [17] was “Non-toxic” and the inhibition (MDA-MB-231 [18]) was “Active”. It also gave an Activity (MDA-MB-231 [19]) of 15.6%, an Activity (MDA-MB-231 [20]) of 5.6% and an Activity (MCF-10A [21]) of 24.4%.

Work on `O=C(CCc1ccc(O)cc1)c1c(O)cc(O)cc1O[C@@H]1O[C@H](CO)[C@@H](O)[C@H](O)[C@H]1O` [PHLORIZIN] yielded an IC50 (MDA-MB-231 [22]) of 26.2 µM.

In the case of `OC[C@H]1O[C@@H](Oc2cccc3cccnc23)[C@H](O)[C@@H](O)[C@@H]1O`, the IC50 (A549) is reported as 5.56 µM and the IC50 (MDA-MB-231 [23]) is reported as 5.56 µM.

Source: ChEMBL document CHEMBL6153037, “Developing dual-responsive quinolinium prodrugs of 8-hydroxyquinoline by harnessing the dual chelating sites” (Eur J Med Chem, 2025)
